From publication PMC9104013, “Role of Polyamine-Induced Dimerization of Antizyme in Its Cellular Functions” (International Journal of Molecular Sciences, 2022)
Read-outs that look alike come from different tables or passages of the source.

Experiments:
hair follicle cycle = test system: hair follicle cycle; parameters: method as in PMID 19956989; details: mice; cited from earlier work
mouse OAZ1 (mOAZ1) = target: T1, mouse OAZ1 (mOAZ1) (Mus musculus, UniProt P54369); experiment: Isothermal titration calorimetry of polyamines binding to mOAZ1; details: for ΔH (enthalpy variation) / Ka (affinity constant): pH 7.5; for ΔH (enthalpy variation): SD did not exceed ±20%; for Ka (affinity constant): SD did not exceed ±25%; for TΔS (entropy variation): calculated from TΔS = ΔH + RTlnKa; for Binding to mOAZ1: under the conditions used
T1 construct: Full-length mOAZ1 protein was successfully produced in E. coli; made in house; host or cells: Escherichia coli Rosetta (DE3)
Experimental: For the precise isothermal titration calorimetry (ITC) experiments only freshly purified samples turned out to be suitable. The thermodynamic parameters of polyamines binding to OAZ1 were measured using a MicroCal iTC200 instrument (GE Healthcare, Chicago, IL, USA) as described elsewhere. Experiments were carried out at 31 °C in buffer containing 25 mM potassium phosphate, pH 7.5; 150 mM KCl; 25% (v/v) glycerol; 1 mM 2-mercaptoethanol; and 1 mM PMSF. Aliquots (2.5 μL) of ligands were injected into a 0.2 mL cell containing the protein solution to achieve a complete binding isotherm. Protein and ligand concentrations were 20 μM and 200 μM, respectively. The heat of dilution was measured by injection of the ligand into the buffer solution or by additional injections of ligand after saturation; the values obtained were subtracted from the heat of reaction to obtain the effective heat of binding. The resulting titration curves were fitted using the MicroCal Origin software, assuming one set of binding sites. Affinity constants (Ka) and enthalpy variations (ΔH) were determined, and the entropy variations (ΔS) were calculated from the equation: TΔS = ΔH + RTlnKa.

[1] = test system: transgenic rats with activated polyamine catabolism; parameters: method as in PMID 12181316, PMID 19956991, PMID 20453551; details: cited from earlier work
OAZ1 protein = OAZ1 protein levels in DU145 cells (Western blotting); assay type: cell-based; details: 4 h, 100 μM, MG132 25 μM
Experimental: Figure 3 2-MeSpd is the weakest inducer of OAZ1 synthesis and the weakest downregulator of ODC in DU145 cells. (A) Uptake of Spd and its analogues in CHX-treated DU145 cells. After 2 h preincubation with CHX (100 µg/mL), the compounds (100 µM) were added, and incubation continued for 4 h before the analysis of the intracellular analogue concentration. (B) Uptake of Spd and its analogues in OAZ1-overexpressing DU145 cells. OAZ1 was induced by 24 h preincubation with DOX (250 ng/mL). The compounds (100 µM) were added for further 6 h before the analysis of intracellular analogue concentration. (C) Effect of Spd and the analogues on OAZ1 protein levels in DU145 cells. The cells were incubated for 4 h with 100 μM analogues in the presence of the proteasomal inhibitor, MG132 (25 μM). (D) Effect of Spd and the analogues on ODC activity in DU145 cells. […]
Polyamines were measured with HPLC according to the published method. Acid-precipitated pellets were dissolved to 0.1 M NaOH, and the amount of DNA was measured using the PicoGreen reagent (Invitrogen) according to manufacturer’s instructions using dilutions of calf thymus DNA (Sigma-Aldrich) as standard curve. Protein concentrations were measured using Bio-Rad protein kit with dilutions of bovine serum albumin (Bio-Rad, Hercules, CA, USA) as standards. ODC activities were measured from the cytosolic fractions as described earlier. […]

ODC [2] = experiment: In vitro effect of Spd and its analogues on ODC activity in cytosolic extract; assay type: biochemical; details: 1 mM, ODC-enriched extract plus extract from OAZ1-overexpressing cells
Experimental: (§1) ODC-enriched lysate was prepared from subconfluent DU145 cells 6 h after medium change by lysing the cells in buffer containing 25 mM Tris-HCl, pH 7.4, 1 mM DTT, and 0.01% Tween-80. OAZ1-enriched lysate was prepared from OAZ1-overexpressing DU145 cells in the same buffer. The lysate was cleared by centrifugation, and the endogenous polyamines were removed by ultrafiltration through 3K-cutoff filter and washing twice with lysis buffer. In experiment 1, ODC-enriched cytoplasmic extract (~100 μg of total protein) was incubated for 30 min at +37 °C in the presence of 1 mM Spd or analogues before ODC activity assay. In experiment 2, ODC-enriched cytoplasmic extract (~100 μg of total protein) was incubated for 30 min at +37 °C with OAZ1-enriched cytoplasmic extract (~100 μg of total protein) in the presence of 1 mM Spd or analogues before ODC activity assay.

ODC [3] = target: T2, ODC (Homo sapiens, UniProt P11926); experiment: as above; assay type: biochemical; details: 1 mM, ODC-enriched DU145 cell sample, 30 min, +37 °C
T2 construct: ODC-enriched lysate was prepared from subconfluent DU145 cells 6 h after medium change; endogenous in cells; host or cells: DU145 cells (cytosolic extract)
T2 sequence (P11926 1-461): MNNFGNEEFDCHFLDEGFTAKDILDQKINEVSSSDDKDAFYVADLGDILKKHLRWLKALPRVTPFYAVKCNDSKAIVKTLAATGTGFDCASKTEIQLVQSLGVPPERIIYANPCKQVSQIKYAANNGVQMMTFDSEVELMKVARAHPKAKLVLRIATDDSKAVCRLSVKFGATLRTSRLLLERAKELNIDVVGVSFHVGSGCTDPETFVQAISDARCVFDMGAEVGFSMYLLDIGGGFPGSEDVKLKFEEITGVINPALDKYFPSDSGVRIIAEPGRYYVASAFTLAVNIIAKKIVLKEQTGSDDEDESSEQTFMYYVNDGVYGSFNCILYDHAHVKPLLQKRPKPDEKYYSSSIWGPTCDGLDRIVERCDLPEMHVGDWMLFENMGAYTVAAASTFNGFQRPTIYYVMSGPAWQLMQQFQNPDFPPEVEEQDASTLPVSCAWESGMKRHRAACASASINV
Experimental: as §1

[4] = ITC, read-out: Kd of complex with mOAZ1
[5] = calculated as 1/Ka, no binding = not detected, Kd > 50 μM not detectable, read-out: Kd (dissociation constant)

T1 sequence (P54369 whole entry): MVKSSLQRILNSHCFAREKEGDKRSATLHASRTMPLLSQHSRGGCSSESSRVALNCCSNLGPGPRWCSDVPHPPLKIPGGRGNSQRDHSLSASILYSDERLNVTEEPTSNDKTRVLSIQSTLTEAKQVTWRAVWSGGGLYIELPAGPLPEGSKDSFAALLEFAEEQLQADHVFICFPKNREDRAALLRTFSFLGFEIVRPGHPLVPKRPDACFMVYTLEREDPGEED

## CC(N)CCNCCCCN (centres unmarked) [1-MeSpd]
Hair follicle cycle
  Hair follicle cycle: activate the hair follicle cycle
Mouse OAZ1 (mOAZ1); ITC, 31 °C
  ΔH (enthalpy variation): -2.2 kcal/mol
  Ka (affinity constant): 540000 M⁻¹
Mouse OAZ1 (mOAZ1); [4]
  Kd: ~1000 nM
Mouse OAZ1 (mOAZ1); [5]
  Kd: 1900 nM
Mouse OAZ1 (mOAZ1)
  TΔS (entropy variation): 5.8 kcal/mol
[1]
  Acute pancreatitis: prevented acute pancreatitis
  Liver regeneration: restored liver regeneration

## CC(CN)CNCCCCN (centres unmarked) [2-MeSpd]
OAZ1 protein
  OAZ1 protein level induction: only marginally induced
Mouse OAZ1 (mOAZ1); ITC, 31 °C, pH 7.5, 150 mM KCl, 25% glycerol, protein 20 μM, ligand 200 μM
  Stoichiometry mOAZ1/Polyamine: No binding ^f
Mouse OAZ1 (mOAZ1); ITC, 31 °C
  ΔH (enthalpy variation): No binding ^f
  Ka (affinity constant): No binding ^f
Mouse OAZ1 (mOAZ1); ITC
  Binding to mOAZ1: not detected
Mouse OAZ1 (mOAZ1); calculated as 1/Ka, no binding = not detected, Kd > 50 μM not detectable
  Kd (dissociation constant): No binding ^f
Mouse OAZ1 (mOAZ1)
  TΔS (entropy variation): No binding ^f

## CC(CCN)NCCCCN (centres unmarked) [3-MeSpd]
Mouse OAZ1 (mOAZ1); ITC, 31 °C
  ΔH (enthalpy variation): -1.2 kcal/mol
  Ka (affinity constant): 400000 M⁻¹
Mouse OAZ1 (mOAZ1); [4]
  Kd: ~1000 nM
Mouse OAZ1 (mOAZ1); [5]
  Kd: 2500 nM
Mouse OAZ1 (mOAZ1)
  TΔS (entropy variation): 6.6 kcal/mol

## NCCCCNCCCN [Spd, spermidine]
OAZ1 protein
  OAZ1 protein level induction: clear induction
Mouse OAZ1 (mOAZ1); ITC, 31 °C
  ΔH (enthalpy variation): -3.3 kcal/mol
  Ka (affinity constant): 280000 M⁻¹
Mouse OAZ1 (mOAZ1); ITC
  Binding to mOAZ1: bound to mOAZ1
Mouse OAZ1 (mOAZ1); [4]
  Kd: ~1000 nM
Mouse OAZ1 (mOAZ1); [5]
  Kd: 3600 nM
Mouse OAZ1 (mOAZ1)
  TΔS (entropy variation): 4.2 kcal/mol
ODC [2]
  Effect on the ability of OAZ1 to inhibit ODC activity in vitro: did not affect the ability of OAZ1 to inhibit ODC activity
ODC [3]
  Effect of direct addition on ODC activity in vitro: did not affect ODC activity
